Reference: paper PMC11898488, “A2A Adenosine Receptor Antagonists and Their Efficacy in Rat Models of Parkinson’s Disease” (Cells, 2025)
pKi: −log10 of the molar value.

Columns and labels:
[1] = biological target: T1, human A2AAR (Homo sapiens, UniProt P29274); details: [3H]-NECA displacement, human A2AAR in CHO cells; geometric mean with 95% confidence limits; read-out: Ki A2A; cited from earlier work
T1 construct: expressed in transfected cells; host or cells: CHO cells, crude membrane fractions

[2] = biological target: T2, human A1AR (Homo sapiens, UniProt P30542); details: [3H]-CCPA displacement, human A1AR in CHO cells; geometric mean with 95% confidence limits; read-out: Ki A1; cited from earlier work
T2 construct: expressed in transfected cells; host or cells: CHO cells, crude membrane fractions
T2 sequence (P30542 1-326): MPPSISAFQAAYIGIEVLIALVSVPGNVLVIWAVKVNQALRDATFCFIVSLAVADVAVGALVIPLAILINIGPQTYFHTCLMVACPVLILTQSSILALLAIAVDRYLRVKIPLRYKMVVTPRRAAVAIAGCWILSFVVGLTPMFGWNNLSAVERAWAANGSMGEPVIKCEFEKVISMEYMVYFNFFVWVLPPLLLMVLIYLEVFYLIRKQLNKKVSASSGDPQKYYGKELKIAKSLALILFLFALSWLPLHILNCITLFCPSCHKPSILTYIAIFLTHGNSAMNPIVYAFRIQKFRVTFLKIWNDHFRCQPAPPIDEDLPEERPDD

[3] = tested on: tacrine-induced tremulous jaw movements; assay: Tacrine-induced tremulous jaw movements; type: in vivo, rat; details: rats, 5 mg/kg i.p. pretreatment, tacrine 2.5 mg/kg i.p.; 60 min, versus vehicle
Description: Rats were divided into two groups and treated with vehicle or 4 (5 mg/kg. i.p.). Tacrine (2.5 mg/kg i.p.) was administered 20 min after vehicle or 4, and the number of TJMs and bursts of TJMs (i.e., episodes of consecutive TJMs) were measured for 60 min. TJMs were defined as vertical deflections of the lower jaw not directed at a particular stimulus. Yawns, tongue protrusions, and stereotypies, such as grooming, were not scored. In the tacrine-induced TJM tests, the mean and S.E.M of the number of TJMs and bursts were calculated. Significant differences between groups were evaluated by Student’s t-test.

T1 sequence (P29274 whole entry): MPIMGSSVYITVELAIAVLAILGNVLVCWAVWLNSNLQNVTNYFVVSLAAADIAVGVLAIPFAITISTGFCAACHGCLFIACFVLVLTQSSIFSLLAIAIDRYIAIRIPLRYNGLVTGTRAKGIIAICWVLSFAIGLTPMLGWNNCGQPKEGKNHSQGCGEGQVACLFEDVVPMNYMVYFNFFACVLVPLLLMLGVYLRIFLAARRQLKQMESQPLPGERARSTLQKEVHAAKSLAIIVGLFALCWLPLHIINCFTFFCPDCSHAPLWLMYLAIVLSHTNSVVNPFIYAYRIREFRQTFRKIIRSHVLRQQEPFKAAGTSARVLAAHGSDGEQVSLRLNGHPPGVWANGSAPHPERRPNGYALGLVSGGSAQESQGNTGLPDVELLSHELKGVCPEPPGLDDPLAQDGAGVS

| Structure (SMILES) | pKi [1] | pKi [2] | Number of tremor bursts induced by tacrine [3] | Number of tremulous jaw movements induced by tacrine [3] |
| --- | --- | --- | --- | --- |
| CCn1c(Br)nc2c(N)nc(OCCc3ccccc3)nc21 [Compound 1, 8-bromo-9-ethyl-2-phenetoxyadenine] | 8.77 | 7.64 | – | – |
| CCOc1nc2c(N)nc(OCCc3ccccc3)nc2n1CC [Compound 4, 8-ethoxy-9-ethyl-2-phenethoxyadenine] | – | – | but not tremor bursts | significantly reduced |
